Measurements as given in article PMC11003450, “Structure-property relationships of fluorinated carboxylic acid bioisosteres” (Bioorganic & medicinal chemistry letters, 2023).
Read-outs that look alike come from different tables or passages of the source.

What was measured:
[1] = PAMPA (parallel artificial membrane permeability assay, ran by Analiza); format: in vitro ADME; conditions: for Papp: PAMPA
From the text: In this work, in order to compare the properties of fluorinated carboxylic acid surrogates with those of other commonly used nonfluorinated bioisosteres, we present the design and synthesis of a focused set of matched molecular pairs (MMPs), which include examples of substituted alcohols and phenols featuring one or more fluorine atoms, and the characterization of these compounds for key physicochemical properties such as acidity (pKa), lipophilicity (logD7.4 and permeability (logPapp) in a parallel artificial membrane permeability assay (PAMPA). The data presented allow for an assessment of the impact of incorporation of fluorine on the physicochemical properties of carboxylic acid surrogates.

[2] = logD7.4 by potentiometric titration (Sirius T3); conditions: n-octanol/aqueous buffer
[3] = pKa by potentiometric titration (Sirius T3)
[4] = supplement csv; previously described derivatives A-Y; ref [3]-[5]; cited from earlier work
[5] = supplement csv; previously described phenylpropionic acid derivatives A-Y; ref [3]-[5]; cited from earlier work
[6] = class by Pe, read-out: PAMPA Permeability
[7] = pH 7.4, logD7.4, n-octanol / aqueous buffer pH 7.4, Table 1
[8] = pH 7.4, logD7.4, supplement csv, compounds 1, 2, 3-10
[9] = pKa (anilinium/aniline), anilinium/aniline pKa, Table 1
[10] = pKa, acidic group (carboxylic acid, alcohol or phenol), Table 1
[11] = read-out: PAMPA Pe (effective permeability)
[12] = difference between experimental and calculated pKa, experimental vs ChemAxon
[13] = pKa (anilinium/aniline), supplement csv, first value of cell, anilinium/aniline

| Compound | pKa [4] | logD7.4 [5] | also measured |
| --- | --- | --- | --- |
| O=C(O)CCc1ccccc1 [Compound 1] |  |  | Papp [1, 6]: > 15 nm/s |
| Nc1ccc(CCC(=O)O)cc1 [Compound 2] |  |  | PAMPA % retention (membrane retention) [1]: 0.05%; Papp [1, 6]: < 15 nm/s; logD [2, 7]: -2.13; logD [2, 8]: -2.13; pKa [3, 9]: 5.17; pKa [3, 10]: 4.12 |
| Nc1ccc(CCC(O)(C(F)(F)F)C(F)(F)F)cc1 [Compound 3] |  |  | PAMPA % retention (membrane retention) [1]: 0.171%; Papp [1, 6]: > 15 nm/s; Papp [1, 11]: 120 nm/s; logD [2, 7]: 3.04; logD [2, 8]: 3.14; pKa [3, 12]: 1 to 1.7; pKa [3, 9]: 4.06; pKa [3, 13]: 4.88; pKa [3, 10]: 7.96; pKa ([3]; pKa, supplement csv, acidic group, compounds 1, 2, 3-10): 9.38 |
| Nc1ccc(CCC(O)(C(F)F)C(F)F)cc1 [Compound 4] |  |  | PAMPA % retention (membrane retention) [1]: 0.02%; Papp [1, 6]: > 15 nm/s; Papp [1, 11]: 101 nm/s; logD [2, 7]: 1.46; logD [2, 8]: 1.46; pKa [3, 12]: 1 to 1.7; pKa [3, 9]: 4.79; pKa [3, 10]: > 12 |
| Nc1ccc(CCC(O)C(F)(F)F)cc1 (stereo not shown) [Compound 5] |  |  | Papp [1, 6]: > 15 nm/s; Papp [1, 11]: 117 nm/s; logD [2, 7]: 1.83; logD [2, 8]: 1.83; pKa [3, 9]: 4.72; pKa [3, 13]: 4.9; pKa [3, 10]: 11.7 |
| Nc1ccc(CCC(O)C(F)F)cc1 (stereo not shown) [Compound 6] |  |  | PAMPA % retention (membrane retention) [1]: 0.015%; Papp [1, 6]: > 15 nm/s; Papp [1, 11]: 102 nm/s; logD [2, 7]: 0.92; logD [2, 8]: 0.92; pKa [3, 9]: 4.87; pKa [3, 10]: > 12 |
| Nc1ccc(Cc2cccc(O)c2C(F)(F)F)cc1 [Compound 7] |  |  | PAMPA % retention (membrane retention) [1]: 0.195%; Papp [1, 6]: > 15 nm/s; Papp [1, 11]: 138 nm/s; logD [2, 7]: 3.17; logD [2, 8]: 3.17; pKa [3, 9]: 4.69; pKa [3, 10]: 8.85 |
| Nc1ccc(Cc2cccc(O)c2OC(F)(F)F)cc1 [Compound 8] |  |  | PAMPA % retention (membrane retention) [1]: 0.36%; Papp [1, 6]: > 15 nm/s; Papp [1, 11]: 86.3 nm/s; logD [2, 7]: 2.29; logD [2, 8]: 2.29; pKa [3, 9]: 4.58; pKa [3, 10]: 9.67 |
| Nc1ccc(Cc2cccc(O)c2SC(F)(F)F)cc1 [Compound 9] |  |  | Papp [1, 6]: > 15 nm/s; Papp [1, 11]: 72.8 nm/s; logD [2, 7]: 2.72; logD [2, 8]: 2.72; pKa [3, 9]: 4.24; pKa [3, 10]: 9.51 |
| Oc1cccc(Cc2ccccc2)c1C(F)(F)F [Compound 32] |  |  | logD [2, 7]: 4.29; pKa ([3]; difference in Δ pKa between 32 and 7, Δ = isostere minus corresponding -COOH, 32 vs matched pair 7): 0.46; pKa [3, 10]: 8.91 |
| O=C(CCc1ccccc1)NO [Compound A1] | 8.18 |  |  |
| CC(=O)N(O)CCc1ccccc1 [Compound A2] | 8.83 |  |  |
| CONC(=O)CCc1ccccc1 [Compound B1] | 9.47 |  |  |
| CC(=O)NOCCc1ccccc1 [Compound B2] | 9.58 |  |  |
| NS(=O)(=O)CCc1ccccc1 [Compound G1] | 10.04 |  |  |
| CN(C)S(=O)(=O)NC(=O)CCc1ccccc1 [Compound H2] | 5.79 | 0.12 |  |
| CC1(NS(=O)(=O)CCc2ccccc2)COC1 [Compound H5] | 10.45 | 1.58 |  |
| CC(=O)NC1(CCc2ccccc2)CS(=O)(=O)C1 [Compound H6] | >12 | 1.18 |  |
| O=S(=O)(NC1(CCc2ccccc2)COC1)c1ccccc1 [Compound H8] | 10.29 | 2.76 |  |
| CN(C)S(=O)(=O)NC1(CCc2ccccc2)COC1 [Compound H9] | 11.02 | 1.96 |  |

| Compound | pKa [4] | logD7.4 [5] | also measured |
| --- | --- | --- | --- |
| CS(=O)(=O)NC1(CCc2ccccc2)CSC1 [Compound H10] | 10.45 | 2.44 |  |
| O=S(=O)(NC1(CCc2ccccc2)CSC1)c1ccccc1 [Compound H11] | >12 | 2.96 |  |
| CN(C)S(=O)(=O)NC1(CCc2ccccc2)CSC1 [Compound H12] | 11.93 | 2.83 |  |
| CS(=O)(=O)NC1(CCc2ccccc2)C[S+]([O-])C1 (stereo not shown) [Compound H13] | 9.87 | 0.87 |  |
| O=S(=O)(NC1(CCc2ccccc2)C[S+]([O-])C1)c1ccccc1 (stereo not shown) [Compound H14] |  | 0.76 |  |
| CN(C)S(=O)(=O)NC1(CCc2ccccc2)C[S+]([O-])C1 (stereo not shown) [Compound H15] | 10.33 | 1.45 |  |
| CS(=O)(=O)NC1(CCc2ccccc2)CS(=O)(=O)C1 [Compound H16] | 9.44 | 1.03 |  |
| O=S1(=O)CC(CCc2ccccc2)(NS(=O)(=O)c2ccccc2)C1 [Compound H17] | 10.22 | 1.89 |  |
| CN(C)S(=O)(=O)NC1(CCc2ccccc2)CS(=O)(=O)C1 [Compound H18] | 9.58 | 1.82 |  |
| CS(=O)(=O)Nc1cc(-c2ccccc2)on1 [Compound H19] | 5.22 | -0.42 |  |
| O=S(=O)(Nc1cc(-c2ccccc2)on1)c1ccccc1 [Compound H20] | 6.62 | 0.99 |  |
| CN(C)S(=O)(=O)Nc1cc(-c2ccccc2)on1 [Compound H21] | 5.62 | 0.42 |  |
| CS(=O)(=O)Nc1cn(-c2ccccc2)nn1 [Compound H22] | 6.34 | 0.06 |  |
| O=S(=O)(Nc1cn(-c2ccccc2)nn1)c1ccccc1 [Compound H23] | 5.93 | 1.06 |  |
| CN(C)S(=O)(=O)Nc1cn(-c2ccccc2)nn1 [Compound H24] | 6.42 | 0.69 |  |
| O=C1C=C(O)CC1Cc1ccccc1 (stereo not shown) [Compound T1] | 4.01 | -0.7 |  |
| CC1=C(O)C(Cc2ccccc2)CC1=O (stereo not shown) [Compound T2] | 4.47 | -0.33 |  |
| O=C1CCC(O)=C1Cc1ccccc1 [Compound T3] | 4.44 | -0.6 |  |
| O=C1CCC(Cc2ccccc2)=C1O [Compound U1] | 8.88 |  |  |
| O=C1CC(c2ccccc2)C=C1O (stereo not shown) [Compound U2] | 8.28 |  |  |

| Compound | pKa [4] | logD7.4 [5] | also measured |
| --- | --- | --- | --- |
| Oc1c(F)cc(Cc2ccccc2)cc1F [Compound W1] | 7.19 |  |  |
| Oc1c(F)ccc(Cc2ccccc2)c1F [Compound W2] | 7.05 |  |  |
| Oc1ccccc1SCc1ccccc1 [Compound W3] | 9.06 | 3.78 |  |
| [O-][S+](Cc1ccccc1)c1ccccc1O (stereo not shown) [Compound W4] | 7.7 |  |  |
| O=S(=O)(Cc1ccccc1)c1ccccc1O [Compound W5] | 7.12 |  |  |
| OC1(CCc2ccccc2)CSC1 [Compound X1] | >12 |  |  |
| [O-][S+]1CC(O)(CCc2ccccc2)C1 (stereo not shown) [Compound X2] | >12 |  |  |
| O=[PH](O)CCc1ccccc1 [D] | 1.98 |  |  |
| O=S(O)CCc1ccccc1 [F] | 2.1 |  |  |
| CS(=O)(=O)NC(=O)NCc1ccccc1 [I] | 5.04 | -1.19 |  |
| c1ccc(CCc2nnn[nH]2)cc1 [K] | 5.09 | -0.36 |  |
| O=C1NC(=O)C(Cc2ccccc2)S1 (stereo not shown) [L] | 6.19 |  |  |
| O=C1NC(=O)C(Cc2ccccc2)O1 (stereo not shown) [M] | 5.86 |  |  |
| O=c1[nH]c(CCc2ccccc2)no1 [N] | 5.73 |  |  |
| O=c1[nH]c(CCc2ccccc2)ns1 [O] | 6.5 |  |  |
| S=c1[nH]c(CCc2ccccc2)no1 [Q] | 3.58 |  |  |
| Oc1cc(Cc2ccccc2)on1 [R] | 5.36 |  |  |
| O=C1CC(=O)C(Cc2ccccc2)N1 (stereo not shown) [S] | 6.08 |  |  |
| OC1(CCc2ccccc2)COC1 [Y] | >12 |  |  |
